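Five compound concentrations were applied to cells in 96-well plates for 48 hours; endpoints were derived by simple linear interpolation of the resulting dose-response curve. At the GI50, growth is halved.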 The source made the active and inactive calls. No stated cut-off is given here; in the data, active = GI50 up to about 1.1 µM and inactive = higher.
Experiments:
Experiment in all cases: DTP human tumour cell line panel, 48 h
BT-549 = tested on: BT-549
COLO 205 = tested on: COLO 205
HCT-116 = tested on: HCT-116
HL-60 = tested on: HL-60
HOP-62 = tested on: HOP-62
HOP-92 = tested on: HOP-92
IGROV-1 = tested on: IGROV-1
KM12 = tested on: KM12
M14 = tested on: M14
MCF7 = tested on: MCF7
Malme-3M = tested on: Malme-3M
OVCAR-4 = tested on: OVCAR-4
OVCAR-8 = tested on: OVCAR-8
RPMI-8226 = tested on: RPMI-8226
SF-268 = tested on: SF-268
SF-295 = tested on: SF-295
SF-539 = tested on: SF-539
SK-OV-3 = tested on: SK-OV-3
SW-620 = tested on: SW-620
UO-31 = tested on: UO-31

In the case of C/C(=C\c1csc(C)n1)[C@@H]1C[C@@H]2O[C@@H]2CCC[C@H](C)[C@H](O)[C@@H](C)C(=O)C(C)(C)[C@@H](O)CC(=O)O1.C/C(=C\c1csc(C)n1)[C@@H]1C[C@@H]2O[C@]2(C)CCC[C@H](C)[C@H](O)[C@@H](C)C(=O)C(C)(C)[C@@H](O)CC(=O)O1, the GI50 (BT-549) is reported as 56.9 nM (active), the GI50 (COLO 205) is reported as 2.99 nM (active) and the GI50 (HCT-116) is reported as 1.73 nM (active). For the same molecule, the GI50 (HL-60) was 4.75 nM (active), the GI50 (HOP-62) was 25.8 nM (active) and the GI50 (HOP-92) was 69.8 nM (active). For the same molecule, the GI50 (IGROV-1) was 2.41 nM (active), the GI50 (KM12) was 2.65 nM (active) and the GI50 (M14) was 2.66 nM (active). The GI50 (MCF7) was 2.93 nM (active), the GI50 (Malme-3M) was 129 nM (active) and the GI50 (OVCAR-4) was 1000 nM (active). The GI50 (OVCAR-8) was 4.8 nM (active), the GI50 (RPMI-8226) was 9.95 nM (active) and the GI50 (SF-268) was 12.2 nM (active). For the same molecule, the GI50 (SF-295) was 5.67 nM (active), the GI50 (SF-539) was 5.11 nM (active) and the GI50 (SK-OV-3) was 9.71 nM (active). For the same molecule, the GI50 (SW-620) was 2.55 nM (active) and the GI50 (UO-31) was 29.7 nM (active).
In the case of CC(=O)NC1C(OCc2ccccc2)OC(CO)C(O)C1OCC(=O)NC(C(=O)NC(CCC(=O)NCCCCCC(=O)Nc1ccc2c(c1)CN1C(=O)c3ccccc3C1=N2)C(N)=O)C(C)C (stereo not given), the GI50 (BT-549) is reported as 21600 nM (inactive), the GI50 (COLO 205) is reported as 47000 nM (inactive) and the GI50 (HCT-116) is reported as 36200 nM (inactive). For the same molecule, the GI50 (HL-60) was > 100000 nM (inactive), the GI50 (HOP-62) was 20300 nM (inactive) and the GI50 (HOP-92) was 95700 nM (inactive). For the same molecule, the GI50 (IGROV-1) was 20300 nM (inactive), the GI50 (KM12) was 19100 nM (inactive) and the GI50 (M14) was 40600 nM (inactive). For the same molecule, the GI50 (MCF7) was 16900 nM (inactive), the GI50 (Malme-3M) was 23800 nM (inactive) and the GI50 (OVCAR-4) was 21900 nM (inactive). For the same molecule, the GI50 (OVCAR-8) was 26400 nM (inactive), the GI50 (RPMI-8226) was 97700 nM (inactive) and the GI50 (SF-268) was 19700 nM (inactive). For the same molecule, the GI50 (SF-295) was 24700 nM (inactive), the GI50 (SF-539) was 19100 nM (inactive) and the GI50 (SK-OV-3) was 18800 nM (inactive). For the same molecule, the GI50 (SW-620) was 50600 nM (inactive) and the GI50 (UO-31) was 47400 nM (inactive).
With CC1=C(N2CC2)C(=O)C(C)=C(N2CC2)C1=O the GI50 (BT-549) was 417 nM (active), the GI50 (COLO 205) was 206 nM (active) and the GI50 (HCT-116) was 206 nM (active). For the same molecule, the GI50 (HL-60) was 20.6 nM (active), the GI50 (HOP-62) was 102 nM (active) and the GI50 (HOP-92) was 170 nM (active). For the same molecule, the GI50 (IGROV-1) was 215 nM (active), the GI50 (KM12) was 279 nM (active) and the GI50 (M14) was 189 nM (active). The GI50 (MCF7) was 21.2 nM (active), the GI50 (Malme-3M) was 204 nM (active) and the GI50 (OVCAR-4) was 283 nM (active). The GI50 (OVCAR-8) was 188 nM (active), the GI50 (RPMI-8226) was 201 nM (active) and the GI50 (SF-268) was 83.4 nM (active). For the same molecule, the GI50 (SF-295) was 127 nM (active), the GI50 (SF-539) was 134 nM (active) and the GI50 (SK-OV-3) was 310 nM (active). For the same molecule, the GI50 (SW-620) was 143 nM (active) and the GI50 (UO-31) was 91.2 nM (active).
With CN(C)CCCN1c2ccc(O)cc2Sc2ccc(Cl)cc21 [7-HYDROXYCHLORPROMAZINE] the GI50 (BT-549) was 12400 nM (inactive), the GI50 (COLO 205) was 20800 nM (inactive) and the GI50 (HCT-116) was 6300 nM (inactive). For the same molecule, the GI50 (HL-60) was 13900 nM (inactive), the GI50 (HOP-62) was 15100 nM (inactive) and the GI50 (HOP-92) was 4250 nM (inactive). For the same molecule, the GI50 (IGROV-1) was 9840 nM (inactive), the GI50 (KM12) was 10500 nM (inactive) and the GI50 (M14) was 5970 nM (inactive). For the same molecule, the GI50 (MCF7) was 13200 nM (inactive), the GI50 (Malme-3M) was 10300 nM (inactive) and the GI50 (OVCAR-4) was 12500 nM (inactive). For the same molecule, the GI50 (OVCAR-8) was 16000 nM (inactive), the GI50 (RPMI-8226) was 4500 nM (inactive) and the GI50 (SF-268) was 6340 nM (inactive). For the same molecule, the GI50 (SF-295) was 15300 nM (inactive), the GI50 (SF-539) was 14600 nM (inactive) and the GI50 (SK-OV-3) was 17400 nM (inactive). For the same molecule, the GI50 (SW-620) was 17500 nM (inactive) and the GI50 (UO-31) was 9530 nM (inactive).

From ChEMBL document CHEMBL1201862, “PubChem BioAssay data set” (2004)
